# ChEMBL document CHEMBL1201862, “PubChem BioAssay data set” (2004)
#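 Test compounds were applied to cells in 96-well plates for 48 hours at 5 doses. GI50 = concentration required for 50% inhibition of growth.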 Calls of active or inactive are those of the source. Cut-off read from the data, not from the text of the source: active = GI50 up to about 1.1 µM and inactive = higher.
# Legend:
# Experiment in all cases: NCI-60 cell line screen, 48 h
# CCRF-CEM = test system: CCRF-CEM
# UACC-62 = test system: UACC-62
# 786-0 = test system: 786-0
# HCC 2998 = test system: HCC 2998
# SK-MEL-2 = test system: SK-MEL-2
# U-251 = test system: U-251
# SN12C = test system: SN12C
# M14 = test system: M14
# HCT-15 = test system: HCT-15
# SK-MEL-5 = test system: SK-MEL-5
# CAKI-1 = test system: CAKI-1
# SF-539 = test system: SF-539
# RXF 393 = test system: RXF 393
# UO-31 = test system: UO-31
# KM12 = test system: KM12
# TK-10 = test system: TK-10
# SR = test system: SR
# OVCAR-8 = test system: OVCAR-8
# RPMI-8226 = test system: RPMI-8226
# NCI/ADR-RES = test system: NCI/ADR-RES
SMILES,GI50 (CCRF-CEM),GI50 (UACC-62),GI50 (786-0),GI50 (HCC 2998),GI50 (SK-MEL-2),GI50 (U-251),GI50 (SN12C),GI50 (M14),GI50 (HCT-15),GI50 (SK-MEL-5),GI50 (CAKI-1),GI50 (SF-539),GI50 (RXF 393),GI50 (UO-31),GI50 (KM12),GI50 (TK-10),GI50 (SR),GI50 (OVCAR-8),GI50 (RPMI-8226),GI50 (NCI/ADR-RES)
O=C1NC(c2ccccc2Cl)Nc2ccccc21 (stereo not given),11.4 µM (inactive),7.14 µM (inactive),28.4 µM (inactive),11.3 µM (inactive),6.7 µM (inactive),10.4 µM (inactive),23.3 µM (inactive),10.5 µM (inactive),3.9 µM,5.57 µM (inactive),5.71 µM (inactive),7.08 µM (inactive),15.3 µM (inactive),30.7 µM (inactive),3.76 µM (inactive),> 53.1 µM (inactive),4.07 µM (inactive),38.6 µM (inactive),7.73 µM (inactive),5.61 µM (inactive)
O=C(NNC(=S)Nc1ccccc1)c1cc(-c2ccccc2)nc2ccccc12,12.4 µM (inactive),15.6 µM (inactive),15.8 µM (inactive),15.5 µM (inactive),11.1 µM (inactive),12.2 µM (inactive),20.8 µM (inactive),14.9 µM (inactive),13.9 µM,13.2 µM (inactive),30.1 µM (inactive),21.4 µM (inactive),19 µM (inactive),15.2 µM (inactive),20.7 µM (inactive),22 µM (inactive),13.6 µM (inactive),22.3 µM (inactive),6.56 µM (inactive),17.4 µM (inactive)
NC(=O)N(O)c1cccc(Br)c1,> 100 µM (inactive),> 100 µM (inactive),> 100 µM (inactive),> 100 µM (inactive),66.5 µM (inactive),> 100 µM (inactive),> 100 µM (inactive),> 100 µM (inactive),> 100 µM,> 100 µM (inactive),> 100 µM (inactive),> 100 µM (inactive),> 100 µM (inactive),> 100 µM (inactive),> 100 µM (inactive),> 100 µM (inactive),> 100 µM (inactive),> 100 µM (inactive),> 100 µM (inactive),> 100 µM (inactive)
CN(NC1=NCCO1)c1ccc2ccccc2c1,17.2 µM (inactive),49.1 µM (inactive),54.6 µM (inactive),38.8 µM (inactive),27.8 µM (inactive),59.7 µM (inactive),62.8 µM (inactive),36 µM (inactive),49.4 µM,29.2 µM (inactive),32.9 µM (inactive),23.6 µM (inactive),38.6 µM (inactive),69.5 µM (inactive),63.1 µM (inactive),> 100 µM (inactive),39.6 µM (inactive),47.3 µM (inactive),76.7 µM (inactive),33.2 µM (inactive)
Cc1ccc2c(c1)C(=O)C(C1OC(=O)c3ccccc31)C2 (stereo not given),89.7 µM (inactive),96.2 µM (inactive),> 100 µM (inactive),> 100 µM (inactive),> 100 µM (inactive),61 µM (inactive),92.7 µM (inactive),> 100 µM (inactive),42.8 µM,65.3 µM (inactive),> 100 µM (inactive),52 µM (inactive),43.8 µM (inactive),> 100 µM (inactive),> 100 µM (inactive),38.5 µM (inactive),74.5 µM (inactive),> 100 µM (inactive),45.8 µM (inactive),33.7 µM (inactive)
COc1ccc(/C=C2\c3cc(OC)c(OC)cc3CCN2C(=O)c2ccccc2)cc1OC,32.3 µM (inactive),36.7 µM (inactive),34.4 µM (inactive),44.6 µM (inactive),43.3 µM (inactive),82.6 µM (inactive),70.1 µM (inactive),58.2 µM (inactive),42.4 µM,18.5 µM (inactive),54 µM (inactive),46.7 µM (inactive),35.2 µM (inactive),35.5 µM (inactive),49.9 µM (inactive),> 100 µM (inactive),30.8 µM (inactive),27.5 µM (inactive),29.4 µM (inactive),23.7 µM (inactive)
Brc1ccc2[nH]cc(-c3csc(-c4c[nH]c5ccccc45)n3)c2c1,2.11 µM (inactive),5.5 µM (inactive),2.37 µM (inactive),2.08 µM (inactive),3.17 µM (inactive),2.98 µM (inactive),3.66 µM (inactive),1.98 µM (inactive),2.33 µM,2.24 µM (inactive),2.9 µM (inactive),4.72 µM (inactive),3.61 µM (inactive),2.93 µM (inactive),2.3 µM (inactive),3.61 µM (inactive),3.39 µM (inactive),4.9 µM (inactive),3.08 µM (inactive),2.75 µM (inactive)
CC1(C)O[C@@H]2[C@@H]3OC(=O)C[C@@H]3[C@@H](COCc3ccccc3)[C@@H]2O1,> 100 µM (inactive),> 100 µM (inactive),> 100 µM (inactive),> 100 µM (inactive),> 100 µM (inactive),> 100 µM (inactive),> 100 µM (inactive),> 100 µM (inactive),> 100 µM,> 100 µM (inactive),> 100 µM (inactive),> 100 µM (inactive),> 100 µM (inactive),> 100 µM (inactive),> 100 µM (inactive),> 100 µM (inactive),> 100 µM (inactive),> 100 µM (inactive),> 100 µM (inactive),> 100 µM (inactive)
CC1=C(/C=C/C(C)=C/C=C/C(C)=C/C(=O)OC2CC(n3cc(F)c(=O)[nH]c3=O)OC2CO)C(C)(C)CCC1 (stereo not given),0.374 µM (active),0.184 µM (active),0.52 µM (active),1.97 µM (inactive),24.9 µM (inactive),1.2 µM (inactive),4.5 µM (inactive),1.35 µM (inactive),4.35 µM,1.18 µM (inactive),0.383 µM (active),0.0577 µM (active),6.3 µM (inactive),0.431 µM (active),12.2 µM (inactive),11.5 µM (inactive),0.247 µM (active),0.526 µM (active),0.254 µM (active),2.05 µM (inactive)
COC(=O)c1ccccc1/C=C1\Cc2c(ccc3c2CCC3)C1=O,> 100 µM (inactive),> 100 µM (inactive),70 µM (inactive),> 100 µM (inactive),56 µM (inactive),68.4 µM (inactive),> 100 µM (inactive),> 100 µM (inactive),> 100 µM,> 100 µM (inactive),> 100 µM (inactive),> 100 µM (inactive),> 100 µM (inactive),> 100 µM (inactive),> 100 µM (inactive),> 100 µM (inactive),> 100 µM (inactive),78.9 µM (inactive),> 100 µM (inactive),> 100 µM (inactive)
CCc1n[nH]c(=O)n1N1C(=O)C2CC=CCC2C1=O (stereo not given),> 100 µM (inactive),> 100 µM (inactive),> 100 µM (inactive),> 100 µM (inactive),> 100 µM (inactive),> 100 µM (inactive),> 100 µM (inactive),> 100 µM (inactive),> 100 µM,> 100 µM (inactive),> 100 µM (inactive),> 100 µM (inactive),> 100 µM (inactive),> 100 µM (inactive),> 100 µM (inactive),> 100 µM (inactive),> 100 µM (inactive),> 100 µM (inactive),> 100 µM (inactive),> 100 µM (inactive)
COc1cccc2cc(C(=O)Nc3ccccn3)c(=N)oc12,22.8 µM (inactive),64.4 µM (inactive),95.1 µM (inactive),> 100 µM (inactive),33.6 µM (inactive),> 100 µM (inactive),> 100 µM (inactive),72.8 µM (inactive),> 100 µM,> 100 µM (inactive),> 100 µM (inactive),> 100 µM (inactive),49 µM (inactive),> 100 µM (inactive),99.3 µM (inactive),> 100 µM (inactive),2.43 µM (inactive),> 100 µM (inactive),75.7 µM (inactive),> 100 µM (inactive)
CN1C(=O)c2c(c3c4ccccc4n(C4OC(CO)C(O)C(O)C4O)c3c3[nH]c4ccccc4c23)C1=O (stereo not given),0.268 µM (active),1.46 µM (inactive),2.67 µM (inactive),2.07 µM (inactive),2.48 µM (inactive),0.681 µM (active),2.82 µM (inactive),2.34 µM (inactive),4.82 µM,1.36 µM (inactive),1.9 µM (inactive),1.36 µM (inactive),3.55 µM (inactive),2.57 µM (inactive),3.85 µM (inactive),3.12 µM (inactive),0.164 µM (active),1.42 µM (inactive),16.1 µM (inactive),12.5 µM (inactive)
CN(C)/C=C/c1c2c(nc3ccccc13)C(=O)c1ccccc1C2=O,0.78 µM (active),0.25 µM (active),1.92 µM (inactive),1.93 µM (inactive),1.12 µM (active),0.991 µM (active),1.26 µM (inactive),0.586 µM (active),0.766 µM,0.175 µM (active),2.06 µM (inactive),1.92 µM (inactive),3.2 µM (inactive),1.82 µM (inactive),1.34 µM (inactive),2.13 µM (inactive),0.449 µM (active),1.63 µM (inactive),0.0989 µM (active),1.71 µM (inactive)
